Results as given in US6914045B2, “Glycopeptide antibiotics” (Wyeth Holdings Corporation, priority 2001, dated 2005).
In brackets after ≈: the same amount, converted by molar mass.

Assays:
Streptococcus sp. = assay: in vitro antibacterial evaluation, MIC by broth dilution; assay type: cell-based; settings: broth dilution, 18 hours at 35° C.
Summary of the method: (§1)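 MIC, the lowest antibiotic concentration preventing growth, was read across 64-0.06 μg/mL with 5×10^5 CFU/mL inoculum. Method followed NCCLS M7-A2 broth dilution using Mueller-Hinton II; Gram-positive strains covered recent methicillin-, penicillin- and/or vancomycin-resistant clinical isolates.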

Staphylococcus sp. = assay: as above; assay type: cell-based; settings: broth dilution, 18 hours at 35° C.
Summary of the method: as §1

Escherichia coli = assay: as above; assay type: cell-based; settings: 18 hours at 35° C.
Summary of the method: as §1

Enterococcus sp. = assay: as above; assay type: cell-based; settings: broth dilution, 18 hours at 35° C.
Summary of the method: as §1

[1] = system: Enterococcus faecalis (GC 6189); assay: acute lethal infection in mice; assay type: in vivo; settings: female CD-1 mice, intraperitoneal challenge, intravenous 30 min. after infection, 7 day survival
Summary of the method: (§2)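 Female CD-1 mice (20±2 g) got an intraperitoneal bacterial challenge lethal to untreated controls within 24–48 hr. Compound was dosed intravenously 30 min after infection, five mice per dose. ED50 was calculated from 7-day survival pooled across 3 tests.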

[2] = system: Staphylococcus aureus-SMITH (GC 4543); assay: acute lethal infection in mice; assay type: in vivo; settings: acute lethal infection, female CD-1 mice, intraperitoneal challenge, intravenous 30 min. after infection, 7 day survival
Summary of the method: as §2

Q: Which results are given for `CC(c1ccccc1)C1NC(=O)CNC(=O)C(CO)NC(=O)C(C(O)C2CNC(=N)N2C2OC(CO)C(O)C(O)C2O)NC(=O)C(C(O)C2CNC(=N)N2)NC(=O)C(Cc2ccc(OC3OC(CO)C(OC4OC5COC(C6CC=CCC6)OC5C(O)C4O)C(O)C3O)cc2)NC1=O` (stereo not drawn) [Example 115, Cyclo[glycyl-β-methylphenylalanyl-O-[4-O-[4,6-O-(cyclohex-3-en-1-ylmethylene)hexopyranosyl]hexopyranosyl]tyrosyl-3-(2-iminoimidazolidin-4-yl)seryl-3-(3-hexopyranosyl-2-iminoimidazolidin-4-yl)serylseryl]]?
A: MIC Streptococcus agalactiae (GC 4564) (Streptococcus sp.; Streptococcus agalactiae (GC 4564)): 0.25 µg/mL (≈ 0.18 µM); MIC Streptococcus pneumoniae (ATCC 6301) (Streptococcus sp.; Streptococcus pneumoniae (ATCC 6301)): <0.06 µg/mL; MIC Streptococcus pneumoniae (GC 1894) (Streptococcus sp.; Streptococcus pneumoniae (GC 1894)): <0.06 µg/mL; MIC Streptococcus pneumoniae (GC 4565) (Streptococcus sp.; Streptococcus pneumoniae (GC 4565)): 0.12 µg/mL (≈ 0.0865 µM); MIC Streptococcus pyogenes (GC 4563) (Streptococcus sp.; Streptococcus pyogenes (GC 4563)): 0.25 µg/mL (≈ 0.18 µM); MIC Streptococcus pneumoniae (ATCC 6301) (Streptococcus sp.; strain ATCC 6301): <0.06 µg/mL; MIC Streptococcus pneumoniae (GC 1894) (Streptococcus sp.; strain GC 1894): <0.06 µg/mL; MIC Streptococcus pyogenes (GC 4563) (Streptococcus sp.; strain GC 4563): 0.25 µg/mL (≈ 0.18 µM); MIC Streptococcus agalactiae (GC 4564) (Streptococcus sp.; strain GC 4564): 0.25 µg/mL (≈ 0.18 µM); MIC Streptococcus pneumoniae (GC 4565) (Streptococcus sp.; strain GC 4565): 0.12 µg/mL (≈ 0.0865 µM); MIC Coagulase Negative Staphylococcus (GC 4547) (Staphylococcus sp.): 1 µg/mL (≈ 0.721 µM); MIC Coagulase Negative Staphylococcus (GC 4548) (Staphylococcus sp.): 0.5 µg/mL (≈ 0.36 µM); MIC Coagulase Negative Staphylococcus (GC 4549) (Staphylococcus sp.): 1 µg/mL (≈ 0.721 µM); MIC Coagulase Negative Staphylococcus (GC 4551) (Staphylococcus sp.): 1 µg/mL (≈ 0.721 µM); MIC Coagulase Negative Staphylococcus (GC 6257) (Staphylococcus sp.): 0.5 µg/mL (≈ 0.36 µM); MIC Staphylococcus aureus (ATCC 29213) (Staphylococcus sp.): 1 µg/mL (≈ 0.721 µM); MIC Staphylococcus aureus (GC 1131) (Staphylococcus sp.): 1 µg/mL (≈ 0.721 µM); MIC Staphylococcus aureus (GC 3051) (Staphylococcus sp.): 1 µg/mL (≈ 0.721 µM); MIC Staphylococcus aureus (GC 3053) (Staphylococcus sp.): 1 µg/mL (≈ 0.721 µM); MIC Staphylococcus aureus (GC 4541) (Staphylococcus sp.): 1 µg/mL (≈ 0.721 µM); MIC Staphylococcus aureus (GC 4542) (Staphylococcus sp.): 0.5 µg/mL (≈ 0.36 µM); MIC Staphylococcus aureus (GC 4544) (Staphylococcus sp.): 1 µg/mL (≈ 0.721 µM); MIC Staphylococcus aureus (GC 4545) (Staphylococcus sp.): 0.5 µg/mL (≈ 0.36 µM); MIC Staphylococcus aureus-SMITH (GC 4543) (Staphylococcus sp.): 1 µg/mL (≈ 0.721 µM); MIC Staphylococcus haemolyticus (GC 4546) (Staphylococcus sp.): 0.5 µg/mL (≈ 0.36 µM); MIC Staphylococcus aureus (GC 1131) (Staphylococcus sp.; inoculum 5×10^5 CFU/mL, strain GC 1131): 1 µg/mL (≈ 0.721 µM); MIC Staphylococcus aureus (ATCC 29213) (Staphylococcus sp.; strain ATCC 29213): 1 µg/mL (≈ 0.721 µM); MIC Staphylococcus aureus (GC 3051) (Staphylococcus sp.; strain GC 3051): 1 µg/mL (≈ 0.721 µM); MIC Staphylococcus aureus (GC 3053) (Staphylococcus sp.; strain GC 3053): 1 µg/mL (≈ 0.721 µM); MIC Staphylococcus aureus (GC 4541) (Staphylococcus sp.; strain GC 4541): 1 µg/mL (≈ 0.721 µM); MIC Staphylococcus aureus (GC 4542) (Staphylococcus sp.; strain GC 4542): 0.5 µg/mL (≈ 0.36 µM); MIC Staphylococcus aureus (GC 4544) (Staphylococcus sp.; strain GC 4544): 1 µg/mL (≈ 0.721 µM); MIC Staphylococcus aureus (GC 4545) (Staphylococcus sp.; strain GC 4545): 0.5 µg/mL (≈ 0.36 µM); MIC Staphylococcus haemolyticus (GC 4546) (Staphylococcus sp.; strain GC 4546): 0.5 µg/mL (≈ 0.36 µM); MIC Coagulase Negative Staphylococcus (GC 4547) (Staphylococcus sp.; strain GC 4547): 1 µg/mL (≈ 0.721 µM); MIC Coagulase Negative Staphylococcus (GC 4548) (Staphylococcus sp.; strain GC 4548): 0.5 µg/mL (≈ 0.36 µM); MIC Coagulase Negative Staphylococcus (GC 4549) (Staphylococcus sp.; strain GC 4549): 1 µg/mL (≈ 0.721 µM); MIC Coagulase Negative Staphylococcus (GC 4551) (Staphylococcus sp.; strain GC 4551): 1 µg/mL (≈ 0.721 µM); MIC Coagulase Negative Staphylococcus (GC 6257) (Staphylococcus sp.; strain GC 6257): 0.5 µg/mL (≈ 0.36 µM); MIC Staphylococcus aureus-SMITH (GC 4543) (Staphylococcus sp.; strain SMITH GC 4543): 1 µg/mL (≈ 0.721 µM); MIC Escherichia coli (ATCC 25922) (Escherichia coli; strain ATCC 25922): 32 µg/mL (≈ 23.1 µM); MIC Escherichia coli (GC 4559) (Escherichia coli; strain GC 4559): 64 µg/mL (≈ 46.1 µM); MIC Escherichia coli (GC 4560) (Escherichia coli; strain GC 4560): 1 µg/mL (≈ 0.721 µM); MIC Enterococcus avium (GC 4558) (Enterococcus sp.; Enterococcus avium (GC 4558)): 2 µg/mL (≈ 1.44 µM); MIC Enterococcus faecalis (ATCC 29212) (Enterococcus sp.; Enterococcus faecalis (ATCC 29212)): 2 µg/mL (≈ 1.44 µM); MIC Enterococcus faecalis (GC 2242) (Enterococcus sp.; Enterococcus faecalis (GC 2242)): 2 µg/mL (≈ 1.44 µM); MIC Enterococcus faecalis (GC 2691) (Enterococcus sp.; Enterococcus faecalis (GC 2691)): 2 µg/mL (≈ 1.44 µM); MIC Enterococcus faecalis (GC 3059) (Enterococcus sp.; Enterococcus faecalis (GC 3059)): 2 µg/mL (≈ 1.44 µM); MIC Enterococcus faecalis (GC 4552) (Enterococcus sp.; Enterococcus faecalis (GC 4552)): 2 µg/mL (≈ 1.44 µM); MIC Enterococcus faecalis (GC 4553) (Enterococcus sp.; Enterococcus faecalis (GC 4553)): 4 µg/mL (≈ 2.88 µM); MIC Enterococcus faecalis (GC 4554) (Enterococcus sp.; Enterococcus faecalis (GC 4554)): 2 µg/mL (≈ 1.44 µM); MIC Enterococcus faecalis (GC 6189) (Enterococcus sp.; Enterococcus faecalis (GC 6189)): 2 µg/mL (≈ 1.44 µM); MIC Enterococcus faecium (GC 2243) (Enterococcus sp.; Enterococcus faecium (GC 2243)): 2 µg/mL (≈ 1.44 µM); MIC Enterococcus faecium (GC 4556) (Enterococcus sp.; Enterococcus faecium (GC 4556)): 2 µg/mL (≈ 1.44 µM); MIC Enterococcus faecium (GC 4557) (Enterococcus sp.; Enterococcus faecium (GC 4557)): 2 µg/mL (≈ 1.44 µM); MIC Enterococcus faecalis (ATCC 29212) (Enterococcus sp.; strain ATCC 29212): 2 µg/mL (≈ 1.44 µM); MIC Enterococcus faecalis (GC 2242) (Enterococcus sp.; strain GC 2242): 2 µg/mL (≈ 1.44 µM); MIC Enterococcus faecium (GC 2243) (Enterococcus sp.; strain GC 2243): 2 µg/mL (≈ 1.44 µM); MIC Enterococcus faecalis (GC 2691) (Enterococcus sp.; strain GC 2691): 2 µg/mL (≈ 1.44 µM); MIC Enterococcus faecalis (GC 3059) (Enterococcus sp.; strain GC 3059): 2 µg/mL (≈ 1.44 µM); MIC Enterococcus faecalis (GC 4552) (Enterococcus sp.; strain GC 4552): 2 µg/mL (≈ 1.44 µM); MIC Enterococcus faecalis (GC 4553) (Enterococcus sp.; strain GC 4553): 4 µg/mL (≈ 2.88 µM); MIC Enterococcus faecalis (GC 4554) (Enterococcus sp.; strain GC 4554): 2 µg/mL (≈ 1.44 µM); MIC Enterococcus faecium (GC 4556) (Enterococcus sp.; strain GC 4556): 2 µg/mL (≈ 1.44 µM); MIC Enterococcus faecium (GC 4557) (Enterococcus sp.; strain GC 4557): 2 µg/mL (≈ 1.44 µM); MIC Enterococcus avium (GC 4558) (Enterococcus sp.; strain GC 4558): 2 µg/mL (≈ 1.44 µM); MIC Enterococcus faecalis (GC 6189) (Enterococcus sp.; strain GC 6189): 2 µg/mL (≈ 1.44 µM); median effective dose (ED50), Enterococcus faecalis (GC 6189) [1]: 0.36 mg/kg; median effective dose (ED50), Staphylococcus aureus-SMITH (GC 4543) [2]: 0.23 mg/kg
